Results from patent publication US20080025918A1, “Invisible light fluorescent platelets for intraoperative detection of vascular thrombosis” (Beth Israel Deaconess Medical Center, Inc., priority 2006, published 2008).

Key:
[1] = Spectral characteristics and relative fluorescence yield of IR-786 (absorbance and fluorescence measurements); format: physicochemical; conditions: for Relative Fluorescence Yield: samples matched for absorbance, 655 nm excitation
Procedure: Absorbance and fluorescence measurements were performed in 1 cm quartz cuvettes as described previously (Ohnishi et al., Mol. Imaging., 2005; 4(3):172-181). For measurement of relative fluorescence yield, IR-786 samples in Tyrodes-HEPES, methanol, or concentrated in washed platelets were matched for absorbance (0.1 A units) and area under the fluorescence emission curve calculated after excitation with a 5 mW 655 nm laser diode.

resting platelets = assay: P-selectin surface expression of resting loaded platelets; format: cell-based, human; conditions: resting platelets loaded with 2 μM IR-786
washed pig platelets = assay: Pig platelet aggregation (aggregometry); format: cell-based; conditions: washed pig platelets incubated 30 minutes with 2 μM IR-786
Procedure: To ensure that platelets loaded with 2 μM IR-786 retained function, the ability of IR-786-loaded platelets to aggregate in response to agonists was assessed. Loaded and non-loaded human platelets, resuspended at a density of 4×10^8 cells/mL in modified Tyrodes-HEPES buffer, were stimulated with agonists in siliconized glass tubes in an optical aggregometer (Chronolog, Havertown, Pa.). Assays were performed at 37° C. and with constant stirring. Aggregation was monitored by measurement of optical density of the platelet suspension (Croce et al., J. Biol. Chem., 1999; 274(51):36321-36327)
The ability of pig platelets to aggregate following incubation with IR-786 was also tested, using aggregometry as described above.

[2] = following incorporation into platelets

## CN1C(=CC=C2CCCC(C=CC3=[N+](C)c4ccccc4C3(C)C)=C2Cl)C(C)(C)c2ccccc21.[O-][Cl+3]([O-])([O-])[O-] [IR-786]
[1]; [2]
  emission maximum: 804 nm
  excitation maximum: 788 nm
[1]; in Methanol
  Peak Absorbance: 775 nm
  Peak Emission: 797 nm
  Relative Fluorescence Yield: 9.5
[1]; in Platelets
  Peak Absorbance: 788 nm
  Peak Emission: 804 nm
  Relative Fluorescence Yield: 1.0
[1]; in Tyrode's-HEPES
  Peak Absorbance: 769 nm
  Peak Emission: 789 nm
  Relative Fluorescence Yield: 1.4
[1]; in aqueous buffer
  emission maximum: 788.8 nm
  excitation maximum: 769.3 nm
Resting platelets
  P-selectin surface expression (platelet activation): no significant P-selectin surface expression
Washed pig platelets
  aggregation in response to thrombin or CRP: aggregated normally
